pIC50: −log10 of the molar value.
What was measured:
[1] = target: Excitatory amino acid transporter 1 (Homo sapiens, UniProt P43003)
[2] = target: T1, Excitatory amino acid transporter 3 (Homo sapiens, UniProt P43005)
T1 sequence (P43005 whole entry): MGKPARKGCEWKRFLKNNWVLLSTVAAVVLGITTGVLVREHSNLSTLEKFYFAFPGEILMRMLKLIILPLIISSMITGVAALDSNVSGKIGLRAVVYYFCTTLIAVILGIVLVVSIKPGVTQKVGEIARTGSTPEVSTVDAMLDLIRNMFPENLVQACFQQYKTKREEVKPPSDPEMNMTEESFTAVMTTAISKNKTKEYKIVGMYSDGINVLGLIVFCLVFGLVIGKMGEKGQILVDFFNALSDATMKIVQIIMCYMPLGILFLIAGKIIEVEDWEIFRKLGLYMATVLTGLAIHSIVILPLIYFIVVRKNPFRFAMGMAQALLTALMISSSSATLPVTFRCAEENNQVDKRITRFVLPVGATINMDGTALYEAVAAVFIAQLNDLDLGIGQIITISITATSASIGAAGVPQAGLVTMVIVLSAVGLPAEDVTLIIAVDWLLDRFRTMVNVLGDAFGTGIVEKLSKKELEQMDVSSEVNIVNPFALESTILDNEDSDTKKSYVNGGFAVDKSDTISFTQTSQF

Sequence of Excitatory amino acid transporter 1 (P43003 whole entry): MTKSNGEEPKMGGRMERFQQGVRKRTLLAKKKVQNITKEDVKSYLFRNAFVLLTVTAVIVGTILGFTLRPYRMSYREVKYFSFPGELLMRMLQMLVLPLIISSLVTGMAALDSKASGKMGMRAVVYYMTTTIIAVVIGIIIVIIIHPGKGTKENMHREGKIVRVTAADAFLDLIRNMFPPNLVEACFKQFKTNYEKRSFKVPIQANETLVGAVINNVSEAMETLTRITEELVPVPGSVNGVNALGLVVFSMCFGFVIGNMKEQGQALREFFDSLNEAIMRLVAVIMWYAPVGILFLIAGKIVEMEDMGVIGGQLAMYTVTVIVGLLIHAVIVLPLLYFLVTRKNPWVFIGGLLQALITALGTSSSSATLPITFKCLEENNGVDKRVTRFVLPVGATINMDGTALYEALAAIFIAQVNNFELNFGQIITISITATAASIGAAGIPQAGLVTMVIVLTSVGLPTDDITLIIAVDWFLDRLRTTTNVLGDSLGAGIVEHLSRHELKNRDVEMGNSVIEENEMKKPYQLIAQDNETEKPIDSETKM

pIC50 [1]	pIC50 [2]	Structure (SMILES)
5.71	5.18	Cc1ccccc1-c1ccc(NC(=O)C[C@H](N)C(=O)O)cc1 [WAY-213394]
5.47	5.74	N[C@@H](CC(=O)Nc1ccc2c(c1)Cc1cc(C(F)(F)F)ccc1-2)C(=O)O [WAY-212922]
	5.84	Cc1cc(C(=O)NC[C@H](N)C(=O)O)ccc1-c1ccc(Cl)cc1 [3-[3-Methyl-4-(4-chlorophenyl)benzoylamino]alanine]

Reference: BindingDB's records for doi:10.1124/mol.105.012005 (Wyeth Research, 2005)
